SMILES	melting point [°C]
CCOC(=O)C=Cc1c[nH]c2cnc(-n3cncn3)cc12	235 to 238
CC1(C)Oc2ccc(-c3c(N)c(=O)c3=O)cc2[C@@H](N2Cc3ccccc3C2=O)[C@@H]1O (relative stereo)	> 250
CN1CC=C(c2cccc(C(F)(F)F)c2)n2ncc(C#N)c21	120 to 122
c1ccc(OCCSCc2nnc(-c3ccc(OCCCCN4CCSCC4)cc3)o2)cc1	58
COC(=O)[C@H]1N[C@@H](c2cccnc2)[C@@H]([N+](=O)[O-])[C@@H]1[C@@H](OCc1ccccc1)C(C)C	70 to 71
CSc1cc(OCCC[Si](C)(C)C)c(Cl)cc1NC=NC#N	94 to 96
CC(=O)NCC1CN(c2ccc(-n3cnc(Cn4cccn4)c3)c(F)c2)C(=O)O1 (centres undefined)	158 to 160
c1ccc2c(c1)cc1n2CC2(CC1)CO2 (centres undefined)	104 to 107
CCCC(=O)N(Cc1ccc(-c2ccccc2C#N)cc1)c1nn(C)cc1C(=O)OCC	118 to 119
CCCc1c(OCCCCCOc2ccc(C(C)=O)cc2CCC(=O)O)ccc2c1OCCC2=O	115 to 118
O=C(O)Cc1ccc(-c2cn3cccnc3n2)cc1	264 to 265
O=C(O)CS(=O)(=O)c1cccc(-c2nc(=O)c3ccccc3s2)n1	192 to 194
Cc1nnc2n1-c1sc(C(N)=O)cc1C(c1ccccc1Cl)=NC2	230 to 232
Cc1c(C(=O)NN2CCCCC2)nn(-c2ccc(Cl)cc2Cl)c1-c1ccc(OS(=O)(=O)CCC(F)(F)F)cc1	160
COC(=O)c1c(Cl)cc(C(F)(F)F)nc1C(F)(F)F	48 to 49
CCOC(=O)c1cn(-c2ccc(OC)cc2F)c2cc(F)c(F)cc2c1=O	170 to 171
Cc1nc2c(N)nc3ccccc3c2n1CC1(O)CCC1	> 250
O=C1CCCC(=O)C1C(=O)c1ccc(Cl)c(OCCn2cnnn2)c1Cl	46 to 54
O=C1NCCc2ccc(OCCCCN3CCN(c4cccc5c4OCCCO5)CC3)nc2N1	78 to 79
Cn1cc(C(=O)O)c(=O)c2c3cc(N4CCCC(C)(C)C4)c(F)cc3ncc21	292 to 295
Cc1nc(C)c(Cl)c(CNCc2ccc(O)cn2)n1	137 to 138
CC(C)c1cccc(C(C)C)c1-n1nnn(C(C)C)c1=O	60 to 62
CS(=O)(=O)Nc1ccc(CC(NC(=O)C(c2ccccc2)c2ccccc2)c2ccccc2)cc1 (centres undefined)	200 to 202
CC(=O)Nc1c(CC(=O)O)cccc1C(=O)c1ccccc1	188 to 190

Next, values leading:

melting point [°C]	SMILES
95 to 97	Nc1sc2c(c1C(=O)c1ccc3ccccc3c1)CCCC2
144 to 145	Nc1ncc(S(=O)c2ccc(C(F)(F)F)cn2)s1 (centres undefined)
136 to 137	NC(=S)N1CCSC1c1ccccc1OCCN1CCN(c2cccc(F)c2)CC1 (centres undefined)
258 to 263	O=C(Nc1cccc(Cl)c1)Nc1ccc(Br)cc1-c1nnn[nH]1
95.3 to 96.3	Cn1c(CCC#Cc2cccc(CF)n2)nc2ccccc21
160 to 162	Cc1nc(-c2ccccc2)nc(N2CCCC2C(=O)N2CC(C)NC(C)C2)c1C (centres undefined)
149 to 150	CSc1cc(=O)c2occc2s1
50 to 52	COc1c(Cl)ccc(C2=NC(C)(C)CO2)c1SC
264	Cn1ncnc1COc1nn2c(-c3cnccn3)nnc2cc1-c1ccccc1
95.5 to 100	CCCCCCCCCCCCCCCCS(=O)(=O)Nc1cccc(C(C)=O)c1
135 to 136	Oc1ccc(-c2nsnc2Cl)cc1
69.5	C=C(CC(=O)Nc1cc(Cl)cc(Cl)c1)C(=O)OCCCC
107 to 110	CN1CCCCC1C(=O)NN=Cc1cc(Cl)cc(Cl)c1O (centres undefined)
130 to 146	COC(=O)C1(C)CN(C(=O)Nc2ccc(Cl)cn2)N=C1c1ccc(Cl)cc1 (centres undefined)
186 to 188	[N-]=[N+]=NC[C@@H]1CN(c2cc(F)c(N3CNC(=O)C3)c(F)c2)C(=O)O1

From a melting point compilation (Tetko et al.; mined from patent text by program, amines drawn as free bases though some values may be those of a salt)
